According to ChEMBL document CHEMBL1201862, “PubChem BioAssay data set” (2004):
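Results reflect a 48-hour exposure of cells in 96-well plates to compound at five concentrations. GI50 is the concentration that inhibits growth by half.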 The source made the active and inactive calls. Rule as the data show it: active = GI50 up to about 1.1 µM and inactive = higher.

What was measured:
Experiment in all cases: inhibition of tumour cell growth, NCI panel, 48 h
[1] = tested on: CCRF-CEM
[2] = tested on: ACHN
[3] = tested on: COLO 205
[4] = tested on: EKVX
[5] = tested on: CAKI-1
[6] = tested on: NCI-H460
[7] = tested on: SR
[8] = tested on: NCI/ADR-RES
[9] = tested on: RXF 393
[10] = tested on: SW-620
[11] = tested on: KM12
[12] = tested on: SF-295
[13] = tested on: IGROV-1
[14] = tested on: OVCAR-3
[15] = tested on: SK-MEL-28
[16] = tested on: OVCAR-5
[17] = tested on: SF-268
[18] = tested on: BT-549

SMILES	GI50 [1]	GI50 [2]	GI50 [3]	GI50 [4]	GI50 [5]	GI50 [6]	GI50 [7]	GI50 [8]	GI50 [9]	GI50 [10]	GI50 [11]	GI50 [12]	GI50 [13]	GI50 [14]	GI50 [15]	GI50 [16]	GI50 [17]	GI50 [18]
O=c1[nH]nc(Cc2ccccc2)[nH]1	> 100 µM (inactive)	> 100 µM (inactive)	> 100 µM (inactive)	> 100 µM (inactive)	> 100 µM (inactive)	> 100 µM (inactive)	44.6 µM (inactive)	> 100 µM (inactive)	> 100 µM (inactive)	> 100 µM (inactive)	> 100 µM (inactive)	> 100 µM (inactive)	> 100 µM (inactive)	> 100 µM (inactive)	> 100 µM (inactive)	> 100 µM (inactive)	> 100 µM (inactive)	> 100 µM (inactive)
NCCCN1CCN(CC(=O)O)CCN(CCCN)CCN(CC(=O)O)CC1	> 91.6 µM (inactive)	> 100 µM (inactive)	33.7 µM (inactive)	> 77.6 µM (inactive)	> 100 µM (inactive)	6.75 µM (inactive)	> 26.9 µM (inactive)	> 100 µM (inactive)	> 47.9 µM (inactive)	9.91 µM (inactive)	28.3 µM (inactive)	> 93.3 µM (inactive)	43.9 µM (inactive)	> 31.8 µM (inactive)	> 100 µM (inactive)	> 38.9 µM (inactive)	> 100 µM (inactive)	> 100 µM (inactive)
CC(C)(C)C1CCC2c3c([nH]c4ccccc34)C3C(=O)N(c4ccc(C#N)cc4)C(=O)C3C2C1 (centres undefined)	0.0108 µM (active)	15.1 µM (inactive)	21.4 µM (inactive)	13.8 µM (inactive)	12.3 µM (inactive)	3.81 µM (inactive)	6.47 µM (inactive)	17.6 µM (inactive)	3.21 µM (inactive)	8.13 µM (inactive)		29.2 µM (inactive)	16.4 µM (inactive)	16.4 µM (inactive)	14 µM (inactive)	20.7 µM (inactive)	11 µM (inactive)	15.7 µM (inactive)
COc1ccc(N2C=Nn3c(nc4sc(C)c(C)c4c3=O)C2)cc1	> 100 µM (inactive)	> 100 µM (inactive)	> 100 µM (inactive)	> 100 µM (inactive)	> 100 µM (inactive)	> 100 µM (inactive)	> 100 µM (inactive)	> 100 µM (inactive)	53.3 µM (inactive)	> 100 µM (inactive)	> 100 µM (inactive)	> 100 µM (inactive)	> 100 µM (inactive)		> 100 µM (inactive)	> 100 µM (inactive)	> 100 µM (inactive)	> 100 µM (inactive)
OCCc1ccsc1-c1sc(-c2cc(CCO)c(-c3sc(-c4cc(CCO)c(-c5sccc5CCO)s4)cc3CCO)s2)cc1CCO	0.647 µM (active)	1.47 µM (inactive)	1.54 µM (inactive)	1.26 µM (inactive)	1.48 µM (inactive)	0.841 µM (active)	0.684 µM (active)	1.86 µM (inactive)	0.454 µM (active)	1.31 µM (inactive)	0.621 µM (active)	1.29 µM (inactive)	1.21 µM (inactive)	1.38 µM (inactive)	1.55 µM (inactive)	1.38 µM (inactive)	0.881 µM (active)	0.634 µM (active)
COc1cc2c(c3c1c(=O)c1ccccc1n3C)C=CC1(CCCC1)O2	9.82 µM (inactive)	16.3 µM (inactive)	13.6 µM (inactive)	13.5 µM (inactive)	2.54 µM (inactive)	10.2 µM (inactive)	7.94 µM (inactive)	23.7 µM (inactive)	5.61 µM (inactive)	20.4 µM (inactive)	7.05 µM (inactive)	3.63 µM (inactive)	12.9 µM (inactive)	13.2 µM (inactive)	13.9 µM (inactive)	12.9 µM (inactive)	18.8 µM (inactive)	10.1 µM (inactive)
Cn1c(=O)cc(NNc2ccc(Cl)c(Cl)c2)[nH]c1=O	13.1 µM (inactive)	5.46 µM (inactive)	18.9 µM (inactive)	10 µM (inactive)	14.1 µM (inactive)	4.86 µM (inactive)	> 100 µM (inactive)	13.3 µM (inactive)	22.9 µM (inactive)	6.1 µM (inactive)	12.3 µM (inactive)	15.3 µM (inactive)	6.52 µM (inactive)	15.5 µM (inactive)	11.5 µM (inactive)	14.4 µM (inactive)	27.9 µM (inactive)	16 µM (inactive)
CC[S+]1C2=C(CC(C)(C)CC2=O)[N-]c2ccccc21 (centres undefined)	> 100 µM (inactive)	> 100 µM (inactive)	> 100 µM (inactive)	> 100 µM (inactive)	> 100 µM (inactive)	> 100 µM (inactive)	> 100 µM (inactive)	> 100 µM (inactive)	> 100 µM (inactive)	> 100 µM (inactive)	> 100 µM (inactive)	31.6 µM (inactive)	> 100 µM (inactive)	> 100 µM (inactive)	> 100 µM (inactive)	> 100 µM (inactive)	> 100 µM (inactive)	> 100 µM (inactive)
CC(C)C1OCC(CO)CO1 (centres undefined)	> 100 µM (inactive)	> 100 µM (inactive)	> 100 µM (inactive)	> 100 µM (inactive)	> 100 µM (inactive)	> 100 µM (inactive)	> 100 µM (inactive)	> 100 µM (inactive)	> 100 µM (inactive)	> 100 µM (inactive)	> 100 µM (inactive)	> 100 µM (inactive)		> 100 µM (inactive)	> 100 µM (inactive)	> 100 µM (inactive)	> 100 µM (inactive)	31.6 µM (inactive)
O=C1NN=C2C=C(c3ccc(Cl)cc3)CC(c3cccc(Cl)c3)C12 (centres undefined)	23.6 µM (inactive)	19.9 µM (inactive)	16.8 µM (inactive)	22.1 µM (inactive)	34.8 µM (inactive)	19 µM (inactive)	18.2 µM (inactive)	39 µM (inactive)	14.5 µM (inactive)	27.9 µM (inactive)	28.6 µM (inactive)	18.7 µM (inactive)	19.6 µM (inactive)	29.5 µM (inactive)		26.5 µM (inactive)	23.1 µM (inactive)	58.2 µM (inactive)
C=C1C(=O)OC2/C=C(/C)C3(O)OC(C)(CC(OC(=O)C(C)C)C12)CC3OC(C)=O (centres undefined)	2.79 µM (inactive)	2.3 µM (inactive)	3.84 µM (inactive)	10.6 µM (inactive)	2.48 µM (inactive)	3.9 µM (inactive)	2.52 µM (inactive)	11.9 µM (inactive)	1.47 µM (inactive)	4.19 µM (inactive)	16.2 µM (inactive)	9.75 µM (inactive)	4.5 µM (inactive)	11.5 µM (inactive)	7.48 µM (inactive)	12.9 µM (inactive)	22.6 µM (inactive)	5.79 µM (inactive)
CC(C)=CCC[C@@H](C)C1=C(N)C(=O)C(C)=C(O)C1=O	18.7 µM (inactive)	18.8 µM (inactive)	29.2 µM (inactive)	30.6 µM (inactive)	35.2 µM (inactive)	33.7 µM (inactive)	26.3 µM (inactive)	8.28 µM (inactive)	> 75 µM (inactive)	41.3 µM (inactive)	32.7 µM (inactive)	32.1 µM (inactive)	29.9 µM (inactive)	33 µM (inactive)	> 75 µM (inactive)	53.1 µM (inactive)	27.4 µM (inactive)	> 75 µM (inactive)
Nc1ccc2nc3n(c2c1)C(c1c(F)cccc1F)SC3 (centres undefined)	68.2 µM (inactive)	> 100 µM (inactive)	> 100 µM (inactive)	> 100 µM (inactive)	> 100 µM (inactive)	> 100 µM (inactive)	> 100 µM (inactive)	> 100 µM (inactive)	> 100 µM (inactive)	> 100 µM (inactive)	> 100 µM (inactive)	98.9 µM (inactive)	> 100 µM (inactive)	> 100 µM (inactive)	> 100 µM (inactive)	> 100 µM (inactive)	> 100 µM (inactive)	> 100 µM (inactive)
CC1(COS(=O)(=O)OCC2(C)COS(=O)(=O)OC2)COS(=O)(=O)OC1	> 28.2 µM (inactive)	> 32.3 µM (inactive)	> 51.6 µM (inactive)	> 71.1 µM (inactive)	> 100 µM (inactive)	> 42.3 µM (inactive)	> 24.9 µM (inactive)	> 48.3 µM (inactive)	> 64.7 µM (inactive)	> 55.2 µM (inactive)	> 32.7 µM (inactive)	> 100 µM (inactive)	39.2 µM (inactive)	> 100 µM (inactive)	> 100 µM (inactive)	> 100 µM (inactive)	> 100 µM (inactive)	> 48.8 µM (inactive)
C[n+]1c(/C=C/c2ccc(O)c3ncccc23)[se]c2ccccc21	0.92 µM (active)	1.92 µM (inactive)	5.58 µM (inactive)	4.25 µM (inactive)	5.01 µM (inactive)	2.51 µM (inactive)	1.64 µM (inactive)	3.48 µM (inactive)	8.67 µM (inactive)	3.98 µM (inactive)	2.48 µM (inactive)	8.57 µM (inactive)	3 µM (inactive)	1.57 µM (inactive)	11.4 µM (inactive)	9.86 µM (inactive)	4.91 µM (inactive)	6.53 µM (inactive)
Nc1nc(-c2ccccc2)cc(-c2ccc(F)cc2)c1-c1ccc(Cl)cc1	33.2 µM (inactive)	> 100 µM (inactive)	> 100 µM (inactive)	> 100 µM (inactive)	> 100 µM (inactive)	31.3 µM (inactive)	22.2 µM (inactive)	> 100 µM (inactive)	> 100 µM (inactive)	> 100 µM (inactive)	> 100 µM (inactive)	41.6 µM (inactive)	> 100 µM (inactive)	> 100 µM (inactive)	> 100 µM (inactive)	> 100 µM (inactive)	> 100 µM (inactive)	> 100 µM (inactive)
